Data: patent publication US4137322A, “ML-236B carboxylic acid derivatives and their use as antihyperlipemic agents” (Sankyo Company Limited, priority 1976, dated 1979)
Read-outs that look alike come from different tables or passages of the source.

Experiments:
[1] = system: cholesterol biosynthesis; assay: Inhibition of cholesterol biosynthesis; assay type: biochemical
[2] = biological target: T1, 3-hydroxy-3-methylglutaryl-CoA reductase (Rattus norvegicus, UniProt P51639); assay: Inhibition of 3-hydroxy-3-methylglutaryl-CoA reductase; assay type: biochemical
T1 construct: Employed as an enzyme microsome of rat liver; from tissue; host or cells: rat liver microsomes
T1 sequence (P51639 1-887): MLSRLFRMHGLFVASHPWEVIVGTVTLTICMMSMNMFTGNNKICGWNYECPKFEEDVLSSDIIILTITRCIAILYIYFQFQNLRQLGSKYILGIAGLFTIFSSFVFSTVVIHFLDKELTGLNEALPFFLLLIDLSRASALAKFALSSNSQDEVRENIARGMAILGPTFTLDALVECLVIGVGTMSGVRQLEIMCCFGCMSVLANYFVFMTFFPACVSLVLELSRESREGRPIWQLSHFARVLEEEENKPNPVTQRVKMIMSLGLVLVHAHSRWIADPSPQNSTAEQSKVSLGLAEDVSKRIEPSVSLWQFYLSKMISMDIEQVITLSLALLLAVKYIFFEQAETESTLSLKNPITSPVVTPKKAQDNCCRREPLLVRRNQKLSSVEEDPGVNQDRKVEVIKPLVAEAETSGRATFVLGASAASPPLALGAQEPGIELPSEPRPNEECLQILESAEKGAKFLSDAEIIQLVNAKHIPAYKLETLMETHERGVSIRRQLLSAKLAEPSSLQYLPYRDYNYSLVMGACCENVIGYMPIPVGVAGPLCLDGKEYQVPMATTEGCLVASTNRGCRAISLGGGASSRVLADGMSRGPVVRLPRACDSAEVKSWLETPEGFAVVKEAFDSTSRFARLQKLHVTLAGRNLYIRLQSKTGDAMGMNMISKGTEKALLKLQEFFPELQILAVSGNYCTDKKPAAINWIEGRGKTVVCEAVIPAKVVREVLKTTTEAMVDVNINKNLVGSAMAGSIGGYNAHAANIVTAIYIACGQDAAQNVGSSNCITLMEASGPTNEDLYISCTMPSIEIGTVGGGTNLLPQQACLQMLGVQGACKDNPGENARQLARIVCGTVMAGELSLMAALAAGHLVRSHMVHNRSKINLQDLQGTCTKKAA
Excerpt: Inhibition activity of cholesterol biosynthesis [determined according to the method disclosed in J. Biol. Chem., 234, 2835 (1959)] and inhibition activity on 3-hydroxy-3-methylglutaryl-CoA reductase [determined according to the method disclosed in Anal. Biochem., 31, 383 (1969)] of these compounds are summarized in Table 1.
*Employed as an enzyme microsome of rat liver.

[3] = system: total serum cholesterol in beagle dogs; assay: Lowering activity of blood cholesterol in beagle dogs; assay type: in vivo, beagle dog; settings: Canis lupus familiaris, po, 120 h, read-out: Lowering rate of total serum cholesterol
Excerpt: The test was to orally administer an encapsulated test sample twice per day, in the morning (9 o'clock) and evening (16 o'clock), for continuous 5 days, collect a blood sample in the morning after 5 days and determine a total cholesterol level in serum by a conventional method.

[4] = system: serum cholesterol in rats; assay: Lowering activity of blood cholesterol in rats; assay type: in vivo, rat; settings: Rattus norvegicus, po, 18 h, read-out: Lowering rate of serum cholesterol
Method: A lowering activity of blood cholesterol in rats was assayed on rats. The test was to orally administer a test sample suspended in water, collect a blood sample after 18 hours and determine a cholesterol level in serum by a conventional method.

[5] = Acute toxicity in mouse; settings: in vivo, ip
Method: (§1) Acute toxicity of ML-236B carboxylic acid derivatives (I) was determined in oral and intraperitoneal administration (both as an aqueous suspension).

[6] = Acute toxicity in rat; settings: in vivo, po
Method: as §1

[7] = enzyme: microsome of rat liver, read-out: Concentration to inhibit 50% of 3-hydroxy-3-methylglutaryl-CoA reductase (converted)
[8] = beagle dogs, 25 mg/kg/day, oral twice per day, 5 days
[9] = beagle dogs, 100 mg/kg/day, oral twice per day, 5 days
[10] = rats, 5 mg/kg, oral, after 18 hours
[11] = rats, 20 mg/kg, oral, after 18 hours
[12] = LD50, mouse, aqueous suspension

Row | SMILES | Concentration to inhibit 50% of cholesterol biosynthesis [1] | IC50 [2, 7] | inhibition in vivo at 25 mg/kg/day [3, 8] | inhibition in vivo at 100 mg/kg/day [3, 9] | inhibition in vivo at 5 mg/kg [4, 10] | inhibition in vivo at 20 mg/kg [4, 11] | LD50 [5, 12] | LD50 ([6]; LD50, rat, aqueous suspension) | IC50 [2] | inhibition in vivo at 25 mg/kg/day [3] | inhibition in vivo at 100 mg/kg/day [3] | inhibition in vivo at 5 mg/kg [4] | inhibition in vivo at 20 mg/kg [4] | LD50 [5] | LD50 [6]
1 | CCC(C)C(=O)OC1CCC=C2C=CC(C)C(CCC(O)CC(O)CC(=O)OCC(=O)c3ccc(Br)cc3)C21 (stereo not drawn) [4-bromophenacyl, 4-Bromophenacyl ML-236B carboxylate] | 0.01 µg/mL | 330 nM | 21% | 30% | 17% | 24% | > 500 mg/kg | > 2000 mg/kg |  |  |  |  |  |  | 
2 | CCC(C)C(=O)OC1CCC=C2C=CC(C)C(CCC(O)CC(O)CC(=O)OCc3ccc(Cl)cc3)C21 (stereo not drawn) [4-chlorobenzyl, 4-Chlorobenzyl ML-236B carboxylate] | 0.01 µg/mL | 375 nM | 20% | 36% | 15% | 21% | > 500 mg/kg | > 2000 mg/kg |  |  |  |  |  |  | 
3 | CCC(C)C(=O)OC1CCC=C2C=CC(C)C(CCC(O)CC(O)CC(=O)OCc3ccc(OC)cc3)C21 (stereo not drawn) [4-methoxybenzyl, 4-Methoxybenzyl ML-236B carboxylate] | 0.01 µg/mL |  |  |  |  |  |  |  | 378 nM | 26% | 36% | 17% | 20% | > 500 mg/kg | > 2000 mg/kg
4 | CCC(C)C(=O)OC1CCC=C2C=CC(C)C(CCC(O)CC(O)CC(=O)OCC(=O)c3ccc(OC)cc3)C21 (stereo not drawn) [4-methoxyphenacyl, 4-Methoxyphenacyl ML-236B carboxylate] | 0.01 µg/mL | 359 nM | 26% | 39% | 14% | 23% | > 500 mg/kg | > 2000 mg/kg |  |  |  |  |  |  | 
5 | CCC(C)C(=O)OC1CCC=C2C=CC(C)C(CCC(O)CC(O)CC(=O)OCc3ccc(C)cc3)C21 (stereo not drawn) [4-methylbenzyl, 4-Methylbenzyl ML-236B carboxylate] | 0.01 µg/mL | 390 nM | 30% | 41% | 13% | 26% | > 500 mg/kg | > 2000 mg/kg |  |  |  |  |  |  | 
6 | CCC(C)C(=O)OC1CCC=C2C=CC(C)C(CCC(O)CC(O)CC(=O)OCC(=O)c3ccc(C)cc3)C21 (stereo not drawn) [4-methylphenacyl, 4-Methylphenacyl ML-236B carboxylate] | 0.01 µg/mL | 370 nM | 20% | 33% | 14% | 19% | > 500 mg/kg | > 2000 mg/kg |  |  |  |  |  |  | 
7 | CCC(C)C(=O)OC1CCC=C2C=CC(C)C(CCC3CC(O)CC(=O)O3)C21 (stereo not drawn) [ML-236B] | 0.01 µg/mL | 12300 nM | < 5% | 19% | 11.2% | 17.1% |  |  |  |  |  |  |  |  | 
8 | CCC(C)C(=O)OC1CCC=C2C=CC(C)C(CCC(O)CC(O)CC(=O)OCc3ccccc3)C21 (stereo not drawn) [benzyl, Benzyl ML-236B carboxylate] | 0.01 µg/mL | 401 nM | 24% | 38% | 14% | 24% | > 500 mg/kg | > 2000 mg/kg |  |  |  |  |  |  | 
9 | CCOC(=O)CC(O)CC(O)CCC1C(C)C=CC2=CCCC(OC(=O)C(C)CC)C21 (stereo not drawn) [ethyl, Ethyl ML-236B carboxylate] | 0.01 µg/mL |  |  |  |  |  |  |  | 366 nM | 13% | 19% | 19% | 25% | > 500 mg/kg | > 2000 mg/kg
10 | CCC(C)C(=O)OC1CCC=C2C=CC(C)C(CCC(O)CC(O)CC(=O)OC(C)C)C21 (stereo not drawn) [isopropyl, Isopropyl ML-236B carboxylate] | 0.04 µg/mL | 355 nM | 19% | 30% | 16% | 25% | > 500 mg/kg | > 2000 mg/kg |  |  |  |  |  |  | 
11 | CCC(C)C(=O)OC1CCC=C2C=CC(C)C(CCC(O)CC(O)CC(=O)OC)C21 (stereo not drawn) [methyl, Methyl ML-236B carboxylate] | 0.01 µg/mL |  |  |  |  |  |  |  | 355 nM | 12% | 26% | 18% | 23% | > 500 mg/kg | > 2000 mg/kg
12 | CCCCOC(=O)CC(O)CC(O)CCC1C(C)C=CC2=CCCC(OC(=O)C(C)CC)C21 (stereo not drawn) [n-butyl, n-Butyl ML-236B carboxylate] | 0.02 µg/mL | 344 nM | 32% | 46% | 20% | 26% | > 500 mg/kg | > 2000 mg/kg |  |  |  |  |  |  | 
13 | CCCCCCOC(=O)CC(O)CC(O)CCC1C(C)C=CC2=CCCC(OC(=O)C(C)CC)C21 (stereo not drawn) [n-hexyl, Hexyl ML-236B carboxylate] | 0.02 µg/mL | 365 nM | 17% | 29% | 14% | 23% | > 500 mg/kg | > 2000 mg/kg |  |  |  |  |  |  | 
